We go through one compound from US6596702B2, “Compositions for use in rehydration and nutrition during athletic exercise and methods of making same” (Elan Drug Delivery Limited, priority 1994, dated 2003).

Data set [1] can be described thus: Tolerability of trehalose. The class given is in vivo. The following applies: humans.
Data set [2] is described as follows: Osmolarity of aqueous trehalose solution (Roebling Micro-Osmometer). The class given is physicochemical. The procedure: 5.0 to 11.34 g of trehalose dihydrate is dry blended at an rpm greater than 18,000 until the consistency of is a uniform powder. Thereafter, the trehalose dihydrate is dissolved in distilled deionized water to a final volume of 100 mL and an osmolarity of 300 mOsm or less. For 11.34 g of trehalose the measured value was 287 mOsm. Measurement of the osmolarity of the final mixture is made on a Roebling Micro-Osmometer.

Data set [3] can be described thus: Blood glucose levels with trehalose as carbohydrate source in a sports beverage. The class given is in vivo. The settings on record: trehalose as primary carbohydrate source in sports beverages.

Turning to `OC[C@H]1O[C@H](O[C@H]2O[C@H](CO)[C@@H](O)[C@H](O)[C@H]2O)[C@H](O)[C@@H](O)[C@@H]1O` [trehalose, α-D-glucopyranosyl-α-D-glucopyranoside], the tolerability result in data set [1] is on record as “well tolerated”. In addition, the osmolarity in data set [2] (1 molar solution of trehalose) came to 1665 mOsm; in data set [2] (11.34 g trehalose dihydrate in distilled deionized water, final volume 100 mL, stated isotonic value) it was 300 mOsm. In data set [2] (11.34 g trehalose dihydrate dissolved in distilled deionized water to a final volume of 100 mL), the “osmolarity, measured value” was found to be 287 mOsm. Also, the “blood glucose levels over that of glucose alone” value in data set [3] was “two-fold”.
